The values that follow come from a melting point compilation (Tetko et al.; mined from patent text by program, amines drawn as free bases though some values may be those of a salt).

The term melting point denotes the temperature, or range, at which the solid turns liquid.

`CCCc1nn(-c2ccc(C(F)(F)F)cn2)cc1C(=O)OCC` showed a melting point of 102 to 103 °C. The figure for `Cc1oc(=O)c(Nc2ccc(I)cc2)nc1Cl` is 203 to 205 °C. Next, `COc1ccc(C(N)=O)c(OC)c1-c1ccc(C[C@H](NC(=O)c2c(Cl)cccc2Cl)C(=O)O)cc1`: 227 to 228 °C; `NC1C=CC=CN1NS(=O)n1ccnc1` (stereo unspecified): 174 to 175 °C. Next, `Nc1nc2ccccc2c2c1nc(CNC(=O)C1CC1)n2CC1(O)CCCCC1`: > 250 °C; `CNC(=O)c1ccc(C=CC(=O)NCC(=O)N(C)c2ccc(Cl)c(CBr)c2Cl)cc1`: 212 to 216 °C; `COc1ccc2[nH]cc(CCC(=O)O)c2c1`: 80 °C. For `CC(=O)Nc1ccc(S(=O)(=O)CCCl)cc1`, the melting point was 188 °C. The figure for `CC(C)(C)OC(=O)NCCCn1ncc2cc(Br)ccc2c1=O` is 130 to 132 °C.

The compound `OCC1CC(n2c(Br)nc3cc(Cl)c(Cl)cc32)C(O)C1O` (stereo unspecified) had a melting point of 208 to 211 °C. `COc1ccc2cc(C(C)C(=O)OCCC3(C)CCc4c(C)c(O)c(C)c(C)c4O3)ccc2c1` (stereo unspecified) gave a melting point of 99.5 to 102 °C.

`CCN1c2ncc(CCc3ccncc3)cc2C(=O)N(C)c2ccc(N)nc21` registered a melting point of 94 to 97 °C. The compound `OC1CSC(Oc2cccn3ncnc23)C(O)C1O` (stereo unspecified) displayed a melting point of 155 °C.

For `CC(C(=O)O)C(=O)Nc1cccc(S(=O)(=O)n2c(=O)[nH]c3cc(Cl)ccc3c2=O)c1` (stereo unspecified), the melting point was in the range of 187 to 188 °C. As to `Cc1cc(N2CCN(C(=O)OC(C)(C)C)CC2)ccc1[N+](=O)[O-]`, the melting point was in the range of 145 to 146 °C.

The compound `OCC1OC(n2c(Cl)nc3cc(Br)c(Br)cc32)C(O)C1O` (stereo unspecified) yielded a melting point of 126 to 129 °C. Compound `O=Cc1cccc(OCc2ccc3ccccc3c2)c1` displayed a melting point of 105 to 106 °C. Next, `COc1cc(Cc2cnc(N)nc2N)c2c(c1OC)OC(C1CC1)C=C2` (stereo unspecified): 229 °C; `N#Cc1cccc(NCc2nc3ccc(F)cc3c(=O)n2-c2ccccc2Cl)c1`: 225 to 228 °C; `CC(=N)N(C)C1CCCCC1`: 108 to 110 °C. `CN(O)C(=O)c1ccc(NCCCc2ccccc2)cc1` registered a melting point of 107 to 108 °C. In turn, `CCOC(=O)c1cc(Oc2ccc(C(F)(F)F)cc2Cl)ccc1[N+](=O)[O-]` gave a melting point of 156 to 160 °C. The figure for `COc1cc(C(=O)NS(=O)(=O)c2ccccc2C)ccc1Cc1cccc2ccc(CCCC(=O)N(C)C)cc12` is 166 to 168 °C; for `CC(C)CCN1C(=O)C(N)C(=O)Nc2ccccc21` (stereo unspecified) it is 148 to 150 °C. The figure for `CN1CCc2cc(S(=O)(=O)NC(=O)Nc3ccc(Cl)cc3)ccc21` is 145 to 147 °C; for `C[C@](O)(CNC(=O)c1cnc(OCC(F)(F)F)c(-c2ccc(Cl)cc2)n1)C1CC1` it is 96 to 97 °C. `COc1ccccc1-c1cccc(CC(NC(=O)c2c(Cl)cccc2Cl)C(=O)O)c1` (racemic) returned a melting point of 104 °C. Next, `NS(=O)(=O)c1cccc(-c2cccc(-c3nc(-c4ccc(F)c(F)c4)cc(C(F)(F)F)n3)c2)c1`: 211 °C. The figure for `CC(C)c1ccc(CNc2ccc(S(=O)(=O)O)cc2)cc1` is > 275 °C; for `Cc1cccc2cc3c(=O)n(CCOC(=O)NCCN(C)C)cc(C(=O)NCCN(C)C)c3nc12` it is 75 to 76 °C. As for `COC(=O)c1sccc1C(C)=O`, the melting point fell in the range of 59 to 60 °C. Next, `O=C1N(CC2CCOCC2)c2ccccc2C12COc1cc3c(cc12)OCCO3` (stereo unspecified): 129 to 131 °C; `COc1ccc(C(O)COc2ccc(C(=O)O)c(O)c2)cc1C(C)(C)C` (stereo unspecified): 149 to 150 °C; `O=CN(O)C(CCO)CS(=O)(=O)c1ccccc1Oc1ccc(OC(F)(F)F)cc1` (stereo unspecified): 120 to 123 °C. Next, `C=C(C)Cn1c(=O)n(C)c(=O)c2c(Sc3ccccn3)n(Cc3cccc4ccccc34)nc21`: 118 to 120 °C; `Cc1ccc(C(NC(c2ccccc2)c2ccccc2)P(O)O)cc1` (stereo unspecified): 208 to 209 °C; `OC1CCc2cc(F)cc(F)c21` (stereo unspecified): 102 to 103 °C.

For `CCC1(CCCCCl)C(=O)Nc2ccc(C)cc21` (stereo unspecified), the melting point lay within 79 to 80 °C. For the compound `Oc1ccc(C2(c3ccccc3)OCCCC2c2ccccc2)cc1` (stereo unspecified), the melting point fell in the range of 194 to 196 °C.

`CCC1(CCCCN2CCc3sccc3C2)C(=O)Nc2ccc(C)cc21` (stereo unspecified) had a melting point of 138 to 140 °C. Turning to `N#Cc1ccc(N2C(=O)C3C(F)CCN3C2=O)c2ccccc12` (stereo unspecified), the melting point fell in the range of 228 to 230 °C.
